Literature values in paper PMC7395068, “The evolution of strategies to minimise the risk of human drug-induced liver injury (DILI) in drug discovery and development” (Archives of Toxicology, 2020).
Read-outs that look alike come from different tables or passages of the source.

Experiments:
[1] = cited from earlier work
[2] = tested on: THLE or HepG2 cells, isolated mitochondria, BSEP; conditions: cited from earlier work
[3] = cited from earlier work; remark: listed apart in the source
[4] = tested on: primary human hepatocytes, NIH3T3 fibroblasts, BSEP, CYP3A4; conditions: cited from earlier work
[5] = In vitro Assay, ref Schadt 2015

SMILES | Partition Hybrid HRM Score ([2]; In vitro Assay, ref Aleo 2019) | Ro2 Hybrid HRM Score ([2]; In vitro Assay, ref Aleo 2019) | DILI +VE (5-8), DILI -VE (-4) ([1]; ref Chen 2016) | DILI severity category ([1]; ref Chen 2016) | In vivo DILI ([3]; ref Schadt 2015) | Cellular toxicity (3T3 cells) [4, 5] | Combined Assay [4, 5] | GSH adduct HML [4, 5] | Hepatocyte cellular toxicity [4, 5] | MitoTox 3T3 [4, 5] | TDI CYP3A4 [4, 5] | hBSEP inhibition [4, 5] | also measured
Nc1ccc(C(=O)O)c(O)c1 [4-aminosalicylic acid] |  |  |  |  |  |  |  |  |  |  |  |  | DILI +VE (5-8), DILI -VE (-4) ([1]; in vivo): +VE; DILI severity category ([1]; in vivo): vMost-DILI-Concern; Partition Hybrid HRM Score [2]: -VE; Ro2 Hybrid HRM Score [2]: -VE
CCOC(=O)Nc1ccc(NCc2ccc(F)cc2)nc1N [Flupirtine (Kv7 hepatotoxic@400)] | +VE | +VE |  |  |  |  |  |  |  |  |  |  | In vivo DILI ([3]; ref Aleo 2019): +VE
O=C(Nc1cccc2c(=O)cc(-c3nnn[nH]3)oc12)c1ccc(OCCCCc2ccccc2)cc1 [Pranlukast] | +VE | +VE |  |  |  |  |  |  |  |  |  |  | In vivo DILI ([3]; ref Aleo 2019): +VE
O=C1CCc2ccc(OCCCCN3CCN(c4cccc(Cl)c4Cl)CC3)cc2N1 [aripiprazole] |  |  | -VE | Ambiguous DILI-concern | -VE |  |  |  |  |  |  |  | Cellular toxicity (3T3 cells) [4]: -VE; Combined Assay [4]: -VE; GSH adduct HML [4]: -VE; Hepatocyte cellular toxicity [4]: -VE; MitoTox 3T3 [4]: -VE; TDI CYP3A4 [4]: -VE; hBSEP inhibition [4]: -VE
COC(=O)N[C@H](C(=O)N[C@@H](Cc1ccccc1)[C@@H](O)CN(Cc1ccc(-c2ccccn2)cc1)NC(=O)[C@@H](NC(=O)OC)C(C)(C)C)C(C)(C)C [atazanavir] |  |  | +VE | vLess-DILI-Concern | +VE | +VE | +VE | +VE | +VE | -VE | -VE | +VE | 
NCC(CC(=O)O)c1ccc(Cl)cc1 (stereo not drawn) [baclofen] |  |  | +VE | vLess-DILI-Concern | -VE | -VE | -VE | -VE | -VE | -VE | -VE | -VE | 
CCc1oc2ccccc2c1C(=O)c1ccc(O)cc1 [benzarone] | +VE | +VE | +VE | vMost-DILI-Concern |  |  |  |  |  |  |  |  | In vivo DILI ([3]; ref Aleo 2019): +VE
CCCC1O[C@@H]2C[C@H]3[C@@H]4CCC5=CC(=O)C=C[C@]5(C)[C@H]4[C@@H](O)C[C@]3(C)[C@]2(C(=O)CO)O1 (stereo partly drawn) [budesonide] |  |  | -VE | vNo-DILI-Concern | -VE | +VE | -VE | +VE | +VE | -VE | -VE | +VE | In vivo DILI ([3]; […]): -VE
CCCC(C)(COC(N)=O)COC(=O)NC(C)C (stereo not drawn) [carisoprodol] |  |  | -VE | vNo-DILI-Concern | -VE |  |  |  |  |  |  |  | Cellular toxicity (3T3 cells) [4]: -VE; Combined Assay [4]: -VE; GSH adduct HML [4]: -VE; Hepatocyte cellular toxicity [4]: -VE; MitoTox 3T3 [4]: -VE; TDI CYP3A4 [4]: -VE; hBSEP inhibition [4]: -VE
N.N.[Cl][Pt][Cl] [cisplatin] |  | -VE |  |  |  |  |  |  |  |  |  |  | 
CC[C@H]1OC(=O)[C@H](C)[C@@H](O[C@H]2C[C@@](C)(OC)[C@@H](O)[C@H](C)O2)[C@H](C)[C@@H](O[C@@H]2O[C@H](C)C[C@H](N(C)C)[C@H]2O)[C@](C)(OC)C[C@@H](C)C(=O)[C@H](C)[C@@H](O)[C@]1(C)O [clarithromycin] |  |  | +VE | vMost-DILI-Concern | +VE | -VE | +VE | -VE | -VE | +VE | -VE | -VE | In vivo DILI ([3]; […]): -VE
O=C1CN=C(c2ccccc2Cl)c2cc([N+](=O)[O-])ccc2N1 [clonazepam] |  |  | +VE | vLess-DILI-Concern | -VE |  |  |  |  |  |  |  | Cellular toxicity (3T3 cells) [4]: -VE; Combined Assay [4]: -VE; GSH adduct HML [4]: -VE; Hepatocyte cellular toxicity [4]: -VE; MitoTox 3T3 [4]: -VE; TDI CYP3A4 [4]: -VE; hBSEP inhibition [4]: -VE
CN(C)CCC=C1c2ccccc2C=Cc2ccccc21 [cyclobenzaprine] |  |  | +VE | vLess-DILI-Concern | -VE | +VE | -VE | -VE | -VE | -VE | -VE | -VE | 
CN1c2c(oc(=O)n(-c3ccccn3)c2=O)-c2ccccc2S1(=O)=O [droxicam] |  |  | +VE | vMost-DILI-Concern | +VE | -VE | -VE | -VE | -VE | -VE | -VE | -VE | 
C[C@]12CC[C@@H]3c4ccc(O)cc4CC[C@H]3[C@@H]1CC[C@@H]2O [estradiol] |  |  |  |  |  |  |  |  |  |  |  |  | DILI +VE (5-8), DILI -VE (-4) ([1]; in vivo): +VE; DILI severity category ([1]; in vivo): vLess-DILI-Concern; Partition Hybrid HRM Score [2]: -VE; Ro2 Hybrid HRM Score [2]: -VE
C=C(CC)C(=O)c1ccc(OCC(=O)O)c(Cl)c1Cl [ethacrynic acid] |  |  |  |  |  |  |  |  |  |  |  |  | Partition Hybrid HRM Score, In vitro Assay ([2]; Partition hybrid, ref Aleo 2019): +VE; Ro2 Hybrid HRM Score, In vitro Assay ([2]; Rule of Two hybrid, ref Aleo 2019): +VE
O=C(CCCN1CCC(O)(c2ccc(Cl)cc2)CC1)c1ccc(F)cc1 [haloperidol] | -VE | -VE |  |  |  |  |  |  |  |  |  |  | 
CC(C)(C)NC(=O)[C@@H]1CN(Cc2cccnc2)CCN1C[C@@H](O)C[C@@H](Cc1ccccc1)C(=O)N[C@H]1c2ccccc2C[C@H]1O [indinavir] |  |  |  |  |  |  |  |  |  |  |  |  | Partition Hybrid HRM Score [2]: +VE; Ro2 Hybrid HRM Score [2]: +VE
COC(=O)C1=C(C)NC(C)=C(C(=O)OC(C)C)C1c1cccc2nonc12 (stereo not drawn) [isradipine] |  |  | +VE | vLess-DILI-Concern | -VE | +VE | -VE | +VE | +VE | -VE | -VE | +VE | 
CCCNS(=O)(=O)Nc1ncnc(OCCOc2ncc(Br)cn2)c1-c1ccc(Br)cc1 [macitentan] | +VE | +VE |  |  |  |  |  |  |  |  |  |  | In vivo DILI ([3]; ref Aleo 2019): +VE
COCCc1ccc(OCC(O)CNC(C)C)cc1 (stereo not drawn) [metoprolol] | +VE | -VE |  |  |  |  |  |  |  |  |  |  | 
Cc1ncc2n1-c1ccc(Cl)cc1C(c1ccccc1F)=NC2 [midazolam] |  |  | -VE | vNo-DILI-Concern | -VE |  |  |  |  |  |  |  | Cellular toxicity (3T3 cells) [4]: -VE; Combined Assay [4]: +VE; GSH adduct HML [4]: +VE; Hepatocyte cellular toxicity [4]: +VE; MitoTox 3T3 [4]: +VE; TDI CYP3A4 [4]: -VE; hBSEP inhibition [4]: +VE
OC(CNCC(O)C1CCc2cc(F)ccc2O1)C1CCc2cc(F)ccc2O1 (stereo not drawn) [nebivolol] |  |  | -VE | Ambiguous DILI-concern | -VE | -VE | -VE | -VE | -VE | -VE | -VE | -VE | 
CCCc1nc(C(C)(C)O)c(C(=O)O)n1Cc1ccc(-c2ccccc2-c2nnn[nH]2)cc1 [olmesartan] |  |  | -VE | Ambiguous DILI-concern | -VE | -VE | -VE | -VE | -VE | -VE | -VE | -VE | In vivo DILI ([3]; […]): -VE
Cc1ccc(Nc2nccc(N(C)c3ccc4c(C)n(C)nc4c3)n2)cc1S(N)(=O)=O [pazopanib] | +VE | +VE |  |  |  |  |  |  |  |  |  |  | 
COc1ccccc1OCC(O)CN1CCN(CC(=O)Nc2c(C)cccc2C)CC1 (stereo not drawn) [ranolazine] |  |  | -VE | vNo-DILI-Concern | -VE |  |  |  |  |  |  |  | Cellular toxicity (3T3 cells) [4]: -VE; Combined Assay [4]: +VE; GSH adduct HML [4]: -VE; Hepatocyte cellular toxicity [4]: -VE; MitoTox 3T3 [4]: +VE; TDI CYP3A4 [4]: -VE; hBSEP inhibition [4]: -VE
O=C(O)COc1ccc(C(=O)c2cccs2)c(Cl)c1Cl [ticrynafen] | +VE | +VE |  |  |  |  |  |  |  |  |  |  | In vivo DILI ([3]; ref Aleo 2019): +VE
Cc1ccc(/C(=C\CN2CCCC2)c2ccccn2)cc1 [triprolidine] | -VE | -VE |  |  |  |  |  |  |  |  |  |  | 
CCCCC(=O)N(Cc1ccc(-c2ccccc2-c2nnn[nH]2)cc1)[C@H](C(=O)O)C(C)C [valsartan] |  |  |  |  |  |  |  |  |  |  |  |  | DILI +VE (5-8), DILI -VE (-4) ([1]; in vivo): +VE; DILI severity category ([1]; in vivo): vLess-DILI-Concern; Ro2 Hybrid HRM Score [2]: +VE
Cc1ccc(-c2nc3ccc(C)cn3c2CC(=O)N(C)C)cc1 [zolpidem] |  |  | -VE | Ambiguous DILI-concern | -VE |  |  |  |  |  |  |  | Cellular toxicity (3T3 cells) [4]: -VE; Combined Assay [4]: -VE; GSH adduct HML [4]: -VE; Hepatocyte cellular toxicity [4]: -VE; MitoTox 3T3 [4]: -VE; TDI CYP3A4 [4]: -VE; hBSEP inhibition [4]: -VE; In vivo DILI ([3]; […]): -VE
